From the supplement of paper PMC8967900

What was measured:
Experiment in all cases: selective drug sensitivity score (sDSS, relative to normal bone marrow) (sDSS (score)); higher = more potent and effective on the cell line relative to normal bone marrow cells
Conditions in all cases: 72 h
[1] = test system: ALL-SIL
[2] = test system: MHH-CALL-2
[3] = test system: SEM cells
[4] = test system: HAL-01
[5] = test system: P30-OHKUBO
[6] = test system: RPMI-8402
[7] = test system: JURKAT
[8] = test system: KASUMI-2
[9] = test system: MHH-CALL-3
[10] = test system: MOLT-14
[11] = test system: COG-LL-355h
[12] = test system: COG-LL-402h
[13] = test system: 697
[14] = test system: LC4-1
[15] = test system: SUP-B15
[16] = test system: PEER
[17] = test system: NALM-6
[18] = test system: COG-LL-317
[19] = test system: NALM-16
[20] = test system: REH
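Note: ALL cell lines in 384-well plates, five doses spanning 10,000-fold, each plate scaled between vehicle and 100 µmol/L benzalkonium chloride controls, sDSS an adapted area-under-curve metric.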

Structure (SMILES) | selective drug sensitivity score [1] | selective drug sensitivity score [2] | selective drug sensitivity score [3] | selective drug sensitivity score [4] | selective drug sensitivity score [5] | selective drug sensitivity score [6] | selective drug sensitivity score [7] | selective drug sensitivity score [8] | selective drug sensitivity score [9] | selective drug sensitivity score [10] | selective drug sensitivity score [11] | selective drug sensitivity score [12] | selective drug sensitivity score [13] | selective drug sensitivity score [14] | selective drug sensitivity score [15] | selective drug sensitivity score [16] | selective drug sensitivity score [17] | selective drug sensitivity score [18] | selective drug sensitivity score [19] | selective drug sensitivity score [20]
COc1cc2c(NC3CCN(C(C)C)CC3)nc(C3CCCCC3)nc2cc1OCCCN1CCCC1 [UNC0638] (top concentration 10000 nM) | 2.16 | -2.84 | -2.94 | -4.64 | 0.86 | -0.04 | -2.64 | -4.34 | 0.86 | -0.94 | 1.86 | 1.16 | -0.84 | -2.84 | -1.04 | 1.26 | -3.64 | 0.06 | -3.04 | -0.24
CCCCNc1ncc(C(=O)NCc2ccc(-n3ccnc3)cc2)c(NC2CCC(O)CC2)n1 (stereo not given) [UNC2881] (top concentration 2500 nM) | 2.8 | 0 | 6.3 | 0.3 | 0 | 0 | 0 | 0 | 0 | 0 | 0 | 0 | 1 | 0 | 3.9 | 1.5 | 0 | 0.6 | 0 | 0.2
CC[C@@H]1CN(C(=O)NCC(F)(F)F)C[C@@H]1c1cnc2cnc3[nH]ccc3n12 [Upadacitinib] (top concentration 10000 nM) | -7.16 | -7.16 | -7.16 | -6.76 | -3.16 | -7.16 | -6.86 | -6.56 | -0.46 | -7.16 | -7.16 | -7.16 | -6.06 | -5.16 | -7.16 | -6.66 | -5.96 | -7.16 | -7.16 | -7.16
O=C(O)CC1CC(c2ccccc2)=NO1 (stereo not given) [VGX-1027] (top concentration 10000 nM) | -0.04 | -0.04 | -0.04 | -0.04 | -0.04 | -0.04 | -0.04 | -0.04 | -0.04 | -0.04 | -0.04 | -0.04 | -0.04 | -0.04 | -0.04 | -0.04 | -0.04 | -0.04 | -0.04 | -0.04
CCCCC(=O)OCC(=O)[C@]1(O)Cc2c(O)c3c(c(O)c2[C@@H](O[C@H]2C[C@H](NC(=O)C(F)(F)F)[C@H](O)[C@H](C)O2)C1)C(=O)c1c(OC)cccc1C3=O [Valrubicin] (top concentration 5000 nM) | -0.72 | 7.48 | 6.58 | 0.38 | 5.98 | 6.88 | 4.98 | 8.38 | 16 | 12.6 | 2.98 | 13.8 | 8.58 | 2.98 | 12.2 | -9.32 | 3.18 | 17 | -3.22 | 12.1
CCc1c(C(=O)C(N)=O)c2c(OCC(=O)O)cccc2n1Cc1ccccc1 [Varespladib] (top concentration 10000 nM) | -0.84 | -0.84 | -0.84 | -0.84 | -0.84 | -0.84 | -0.74 | -0.84 | -0.84 | -0.84 | -0.84 | 6.36 | -0.84 | -0.84 | -0.84 | -0.84 | -0.84 | -0.74 | 0.56 | -0.84
CC1(C)CCC(CN2CCN(c3ccc(C(=O)NS(=O)(=O)c4ccc(NCC5CCOCC5)c([N+](=O)[O-])c4)c(Oc4cnc5[nH]ccc5c4)c3)CC2)=C(c2ccc(Cl)cc2)C1 [Venetoclax] (top concentration 1000 nM) | 16.5 | 28.7 | 21.1 | 20.4 | 21 | -4.4 | -3.3 | 22.9 | 31.5 | 8 | 31.2 | 14.1 | 10.1 | 31.8 | 34.5 | -2.9 | 4.4 | 2.2 | 22.6 | 0.9
CCCCOc1nc(N)c2c(n1)N(Cc1cccc(CN3CCCC3)c1)CC(=O)N2 [Vesatolimod] (top concentration 10000 nM) | -3.52 | -3.52 | -3.52 | -3.52 | -3.52 | -3.52 | -3.42 | -3.52 | -3.52 | -3.52 | 0.28 | -3.52 | -3.42 | -3.52 | -3.52 | -3.52 | -3.52 | -2.92 | -3.52 | -3.52
CCC1=C[C@@H]2CN(C1)Cc1c([nH]c3ccccc13)[C@@](C(=O)OC)(c1cc3c(cc1OC)N(C)[C@H]1[C@@](O)(C(=O)OC)[C@H](OC(C)=O)[C@]4(CC)C=CCN5CC[C@]31[C@@H]54)C2 [Vinorelbine] (top concentration 10000 nM) | 23.6 | 19.3 | 24.1 | 1.38 | 21.5 | 21 | 23.5 | 17.8 | 11 | 22.9 | 5.98 | 22.2 | 25 | 23.4 | 27.2 | 19.8 | 14.9 | 25.6 | 18.3 | 26.6
